# pIC50: −log10 of the molar value.
# Test system: 415267-285-R-J2-PDC complex spheroid viability
# Experiment: Anticancer human tumor 415267-285-R-J2-PDC patient-derived breast carcinoma cell line growth inhibition [POLQ]
# Conditions: for pIC50: curve of first compound; for viability, T/C: stronger effect = lower value
# Outline: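 Complex spheroid viability model combining PDC tumour cells with endothelial (HUVEC) and MSC stromal cells. Novobiocin, ART-558 or RP6685 were tested singly and in combination with standard and investigational anticancer drugs. Each was titrated in half-log steps from near clinical Cmax, or from 10 microM where Cmax was unknown.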
# [1] = second compound 0.0316 µM, first compound 0.00316 µM
# [2] = second compound 0.0316 µM, first compound 0.01 µM
# [3] = second compound 0.0316 µM, first compound 0.0316 µM
# [4] = second compound 0.0316 µM, first compound 0.1 µM
# [5] = second compound 0.1 µM, first compound 0.00316 µM
# [6] = second compound 0.1 µM, first compound 0.01 µM
# [7] = second compound 0.1 µM, first compound 0.0316 µM
# [8] = second compound 0.1 µM, first compound 0.1 µM
# [9] = second compound 0.316 µM, first compound 0.00316 µM
# [10] = second compound 0.316 µM, first compound 0.01 µM
# [11] = second compound 0.316 µM, first compound 0.0316 µM
# [12] = second compound 0.316 µM, first compound 0.1 µM
# [13] = second compound 1 µM, first compound 0.00316 µM
# [14] = second compound 1 µM, first compound 0.01 µM
# [15] = second compound 1 µM, first compound 0.0316 µM
# [16] = second compound 1 µM, first compound 0.1 µM
# [17] = second compound 3.16 µM, first compound 0.00316 µM
# [18] = second compound 3.16 µM, first compound 0.01 µM
# [19] = second compound 3.16 µM, first compound 0.0316 µM
# [20] = second compound 3.16 µM, first compound 0.1 µM
# [21] = second compound 10 µM, first compound 0.00316 µM
# [22] = second compound 10 µM, first compound 0.01 µM
# [23] = second compound 10 µM, first compound 0.0316 µM
# [24] = second compound 10 µM, first compound 0.1 µM
# 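Note: spheroids exposed to compounds for one week before readout.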
# 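Throughout, for viability, T/C: luminescence used as stand-in measure of viable cells; 100% = DMSO vehicle control viability.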
smiles,measurement,setting,value
COc1cccc(OCCCN)c1-c1cc(Nc2cnc(C#N)cn2)n[nH]1 + COC1C(OC(N)=O)C(O)C(Oc2ccc3c(O)c(NC(=O)c4ccc(O)c(CC=C(C)C)c4)c(=O)oc3c2C)OC1(C)C,pIC50,second compound 0.0316 µM,> 8.50
same,pIC50,second compound 0.1 µM,> 8.50
same,pIC50,second compound 0.316 µM,> 8.50
same,pIC50,second compound 1 µM,8.43
same,pIC50,second compound 3.16 µM,8.44
same,pIC50,second compound 10 µM,8.42
same,"viability, T/C",[1],41.4%
same,"viability, T/C",[2],14.1%
same,"viability, T/C",[3],7.52%
same,"viability, T/C",[4],8.68%
same,"viability, T/C","second compound 0.0316 µM, first compound 0.316 µM",6.7%
same,"viability, T/C","second compound 0.0316 µM, first compound 1 µM",4.81%
same,"viability, T/C",[5],40.2%
same,"viability, T/C",[6],10.2%
same,"viability, T/C",[7],7.65%
same,"viability, T/C",[8],6.8%
same,"viability, T/C","second compound 0.1 µM, first compound 0.316 µM",6.5%
same,"viability, T/C","second compound 0.1 µM, first compound 1 µM",5.69%
same,"viability, T/C",[9],46.9%
same,"viability, T/C",[10],8.13%
same,"viability, T/C",[11],8.41%
same,"viability, T/C",[12],6.89%
same,"viability, T/C","second compound 0.316 µM, first compound 0.316 µM",7.31%
same,"viability, T/C","second compound 0.316 µM, first compound 1 µM",4.55%
same,"viability, T/C",[13],56.2%
same,"viability, T/C",[14],9.03%
same,"viability, T/C",[15],7.11%
same,"viability, T/C",[16],7.02%
same,"viability, T/C","second compound 1 µM, first compound 0.316 µM",5.8%
same,"viability, T/C","second compound 1 µM, first compound 1 µM",4.41%
same,"viability, T/C",[17],55.3%
same,"viability, T/C",[18],8.65%
same,"viability, T/C",[19],7.11%
same,"viability, T/C",[20],7.79%
same,"viability, T/C","second compound 3.16 µM, first compound 0.316 µM",5.22%
same,"viability, T/C","second compound 3.16 µM, first compound 1 µM",5.51%
same,"viability, T/C",[21],58.6%
same,"viability, T/C",[22],7.45%
same,"viability, T/C",[23],7.04%
same,"viability, T/C",[24],6.59%
same,"viability, T/C","second compound 10 µM, first compound 0.316 µM",6.37%
same,"viability, T/C","second compound 10 µM, first compound 1 µM",5.49%
Cn1ncnc1[C@H]1c2n[nH]c(=O)c3cc(F)cc(c23)N[C@@H]1c1ccc(F)cc1 + COC1C(OC(N)=O)C(O)C(Oc2ccc3c(O)c(NC(=O)c4ccc(O)c(CC=C(C)C)c4)c(=O)oc3c2C)OC1(C)C,pIC50,second compound 0.0316 µM,< 7.00
same,pIC50,second compound 0.1 µM,< 7.00
same,pIC50,second compound 0.316 µM,< 7.00
same,pIC50,second compound 1 µM,< 7.00
same,pIC50,second compound 3.16 µM,< 7.00
same,pIC50,second compound 10 µM,< 7.00
same,"viability, T/C","second compound 0.0316 µM, first compound 0.000316 µM",102%
same,"viability, T/C","second compound 0.0316 µM, first compound 0.001 µM",98.6%
same,"viability, T/C",[1],113%
same,"viability, T/C",[2],101%
same,"viability, T/C",[3],107%
same,"viability, T/C",[4],93%
same,"viability, T/C","second compound 0.1 µM, first compound 0.000316 µM",105%
same,"viability, T/C","second compound 0.1 µM, first compound 0.001 µM",99.3%
same,"viability, T/C",[5],101%
same,"viability, T/C",[6],103%
same,"viability, T/C",[7],97.8%
same,"viability, T/C",[8],106%
same,"viability, T/C","second compound 0.316 µM, first compound 0.000316 µM",112%
same,"viability, T/C","second compound 0.316 µM, first compound 0.001 µM",99.6%
same,"viability, T/C",[9],94.2%
same,"viability, T/C",[10],106%
same,"viability, T/C",[11],107%
same,"viability, T/C",[12],104%
same,"viability, T/C","second compound 1 µM, first compound 0.000316 µM",97.6%
same,"viability, T/C","second compound 1 µM, first compound 0.001 µM",93.3%
same,"viability, T/C",[13],94.8%
same,"viability, T/C",[14],97.9%
same,"viability, T/C",[15],109%
same,"viability, T/C",[16],105%
same,"viability, T/C","second compound 3.16 µM, first compound 0.000316 µM",89.6%
same,"viability, T/C","second compound 3.16 µM, first compound 0.001 µM",92.9%
same,"viability, T/C",[17],95.4%
same,"viability, T/C",[18],105%
same,"viability, T/C",[19],109%
same,"viability, T/C",[20],103%
same,"viability, T/C","second compound 10 µM, first compound 0.000316 µM",105%
same,"viability, T/C","second compound 10 µM, first compound 0.001 µM",101%
same,"viability, T/C",[21],101%
same,"viability, T/C",[22],96.3%
same,"viability, T/C",[23],102%
same,"viability, T/C",[24],96.1%
